Laboratory results from ChEMBL document CHEMBL3507680, “University of Dundee, Gates Library screen for HepG2 cell viability”.

Experiment: Human HepG2 cell viability assay in 384 well format
Format: toxicity, cell-based
Set-up: dose 125 nL, time 70.5 hour; cytotoxicity at 70.5 h: concentration not given beside the values
Conditions: HepG2 cells, read-out: Inhibition

Row | SMILES | cytotoxicity at 70.5 h [%]
1 | CN1CCN(C[C@@H]2CN(C(=O)CCc3cn[nH]c3)C[C@@H]2CO)CC1 | -6.13
2 | CN1CCN(C2CCCC2)C(CCO)C1 (stereo unspecified) | -1.81
3 | COc1ccccc1OC1CN(c2ccncc2)C1 | -4.23
4 | CC(C)n1ccnc1C1CCCN(c2cncc(N(C)C)n2)C1 (stereo unspecified) | 2.84
5 | Cn1c(Cn2ncc(N3CCCCC3)cc2=O)nc2ccccc21 | 44.3
6 | COC(=O)[C@@H](Nc1nc(C2CCCC2)nc2c1cnn2C)[C@@H](C)O | -11.8
7 | CNc1cc(C)nc(N2CCC3(CC2)[C@H](O)C[C@@H]3OCCN(C)C)n1 | -1.9
8 | Cc1n[nH]c(C)c1CCNC(=O)C1CCCN(Cc2ccco2)C1 (stereo unspecified) | 9.52
9 | CC[C@H](C)[C@@H](CO)NC(C)Cc1ccc(C)cc1 (stereo partly specified) | -2
10 | CC(=O)c1ccc(N2CCC3(CCC(=O)N(CCCO)C3)CC2)nc1 | 3.25
11 | CN1CCN(c2cc(Sc3cccs3)nc(N)n2)CC1CCO (stereo unspecified) | -7.97
12 | Cc1c[nH]c(CN2CC[C@@]3(O)CCN(C(=O)C4CCCC4)C[C@H]3C2)n1 | 19.2
13 | CCC(NC1Cc2ccccc2C1)c1ccc(S(C)(=O)=O)cc1 (stereo unspecified) | -14.8
14 | Cc1csc2c(=O)n(CCSc3cnn[nH]3)cnc12 | -7.83
15 | CCn1cnc(NC(=O)N2CCCC(c3ccccc3)CC2)n1 (stereo unspecified) | -6.51
16 | COCCNC(=O)[C@H]1C[C@@](CC(C)C)(C(=O)O)N(C)[C@H]1c1cccnc1 | 1.74
17 | Cc1cccc2nc(C(=O)N3CCC4(CCC(=O)N(C)C4)CC3)c(F)n12 | -11.3
18 | Cn1cc(CN(C(=O)c2ccc3ncsc3c2)C2CC2)cn1 | 19.6
19 | COc1ccccc1OCc1cc(C(=O)N2CCC(NC(C)=O)C2)n[nH]1 (stereo unspecified) | 2.49

Row | SMILES | cytotoxicity at 70.5 h [%]
20 | Cc1noc(C)c1C(=O)N1CCC2(CC1)c1nc[nH]c1CCN2C | -3.9
21 | CC(C(=O)N1CCN(CCOc2ccccc2)CC1)n1cc(Cl)cn1 (stereo unspecified) | -9.22
22 | CCc1cc(N(C)Cc2ccno2)n2nc(C)c(C)c2n1 | -2.75
23 | O=C(O)C1(Oc2cccc(F)c2)CCN(c2ccncc2)CC1 | -0.0629
24 | CC(C)c1cc(N2CCC(C(C)N3CCCC3)CC2)n2nccc2n1 (stereo unspecified) | -3.16
25 | COCCCC1(CO)CCCN(Cc2cccc(C#N)c2)C1 (stereo unspecified) | -5.8
26 | CC(C)(C)CNCC1(O)CCCN(Cc2ccccc2F)C1=O (stereo unspecified) | 0.716
27 | NC(=O)C1CN(c2ncnc3c2Cc2ccccc2OC3)CCO1 (stereo unspecified) | -3.79
28 | CN(Cc1ccncn1)c1nccc(CCC(F)(F)F)n1 | 23
29 | Fc1cc(Cl)cnc1N1CCCC(c2nccn2Cc2ccccn2)C1 (stereo unspecified) | 10.1
30 | CSCCc1n[nH]c2c1CN(S(=O)(=O)c1c(C)nn(C)c1C)CC2 | 17.2
31 | COc1ccnc(CN2CCCC(CCc3ccccc3)C2)c1OC (stereo unspecified) | 3.51
32 | Cc1ccc2cc(C3(O)CCN(C)CC3)ccc2n1 | -0.603
33 | O=C(c1ccncc1)N1C[C@@H]2CC[C@H](C1)N(S(=O)(=O)c1cccnc1)C2 | -5.9
34 | CCC(C(=O)N(C)Cc1cc(COC)[nH]n1)n1cccn1 (stereo unspecified) | -11.5
35 | CCNC(=O)C1CN(Cc2c(-c3cc(C)on3)nn(C)c2Cl)CCO1 (stereo unspecified) | 2.76
36 | O=C(c1cccc(Oc2ccccc2)c1)N1CCCC(O)(CO)CC1 (stereo unspecified) | -8.12
37 | Cc1ccc(CN2CCOCS2(=O)=O)cc1F | -9.79
38 | CCn1nc(C)c(CCNC(=O)C2CCCN(C(N)=O)C2)c1C (stereo unspecified) | 19.9

Row | SMILES | cytotoxicity at 70.5 h [%]
39 | COc1ccc(C(C(=O)O)N(C)Cc2c(C)nn(C)c2C)c(C)c1 (stereo unspecified) | -10
40 | CCN(Cc1noc(C2CC2)n1)C(=O)c1onc2ccccc12 | -8.65
41 | Cc1noc(C)c1CN1CCO[C@H]2CNC[C@H]21 | -6.78
42 | O=C(c1ccco1)N1C[C@H]2CCCN(Cc3cccs3)[C@H]2C1 | 7.1
43 | Cc1cnc(C(=O)N2C[C@@H]3CN(CC4CCCC4)CCO[C@@H]3C2)cn1 | 25.7
44 | CN(C)C(=O)N1C[C@H]2CCC[C@@]2(COc2ccccn2)C1 | -8.44
45 | c1cnc(N2CCC3(CCN(CC4CCOC4)C3)CC2)nc1 (stereo unspecified) | -17.9
46 | Cc1noc(C)c1C(=O)N1C[C@H]2CCC[C@@]2(COc2ccccn2)C1 | -11.3
47 | COc1ccc(CC(=O)N2C[C@@H]3COC[C@]3(CN(C)C)C2)cc1 | -17.9
48 | O=C(Nc1cccnc1)[C@H]1C[C@H]2OCC[C@H]2N(C(=O)c2ccsc2)C1 | -15.4
49 | Cc1oncc1C(=O)NCc1cc(=O)n2c(n1)CN(C)CCC2 | -14.9
50 | CCC(CC)C(=O)N1CCC2(C1)CN(c1ccccc1)C(=O)CN2C (stereo unspecified) | -20.2
51 | O=C(c1ccncc1)N1CCCC2(COCCN(c3ccccc3)C2)C1 (stereo unspecified) | -16.1
52 | CN(C)[C@@H]1CN(Cc2ccco2)C[C@@H]2CCCO[C@@H]21 | -8.79
53 | COCC1CC2(CCN(Cc3cnn(C)c3)CC2)CN1C(C)C (stereo unspecified) | -15.8
54 | COc1ccc(CN2CCC3(CC2)NC(=O)CC3c2ccncc2)cc1 (stereo unspecified) | -7.29
55 | c1cnc(N2CCC3(CCN(CC4CC4)CC3)CC2)nc1 | -15.1
56 | Cc1noc(C)c1CN1CCO[C@H]2CN(CC3CC3)C[C@H]21 | -28.9
